Several values for one entry are separate records, joined by “and”; a condition that tells them apart may be missing. Equal values may be shown once.
Tests used:
[1] = tested on: IL8; test: IL8 in BALF (Luminex) after RSV challenge; assay type: in vivo, African green monkeys; conditions: both studies
Method: The following monkey-specific cytokines were determined in BALF using a Luminex bead analysis according to the manufacturer's protocol: Interleukins (IL)-1b, IL-2, IL-4, IL-5, IL-6, IL-8, IL-10, Interferons (IFN)γ, IFNα, Tumor necrosis factor (TNF)α, Regulated on Activation, Normal T Cell Expressed and Secreted (RANTES), and Macrophage inflammatory protein (MIP)-1α. The non-human primate Luminex beads for IFNγ, IFNα, and IL-10 were provided by Texas Biomedical Research Institute (Texas, USA). The beads for the remaining cytokines were obtained from Millipore (Billerica, MA, USA). The samples for cytokine determination were run in duplicates. Human cytokine standards were used for standard curves and for determination of the lower limit of detection for individual cytokines. The results were read using a Luminex 100 System (Texas, USA).

[2] = tested on: RSV subgroup A strain A2; test: Lung histopathology (inflammation) in RSV-infected animals; assay type: in vivo, African green monkeys
Method: Tissues (administration site, heart, liver, lung, pancreas, skeletal muscle and trachea) were fixed in 10% phosphate-buffered formalin, paraffin-embedded, sectioned at 5 μm, stained with hematoxylin-eosin (H&E) and evaluated microscopically. For the lung, histological examination was performed on the right lung only, the left lung lobe was sampled for bioanalytical purposes. At tissue trimming, representative cross sections were taken from the cranial, mid and caudal lung lobe in all animals including the central part (with large bronchus) and the peripheral part. Three lung sections per animal (cranial, mid and caudal lobe) with two samples each (central and peripheral) were evaluated for each animal. To facilitate comparison between groups, a general overall score for inflammation was given for each lung section. Mean inflammatory scores were determined for each animal (mean of 3 lung lobes) and per dose group (S2 Fig).
The necropsy was performed at day 13 for Study 1 and at Day 15 for Study 2. Before necropsy, a sample for complete blood count and plasma sample was taken. Euthanasia procedures adhered to the current Report of the American Veterinary Medical Association Panel on Euthanasia. The anesthesia was performed with a combination of ketamine hydrochloride (7–15 mg/kg) and either acetylpromazine maleate (acepromazine) (0.55 mg/kg) or xylanin (Rompun) (0.6 mg/kg) followed by exsanguinations via the femoral vein. The blood taken was recorded. Thereafter, an injection of 390 mg/kg sodium pentobarbital intravenously was given. Death was defined as the cessation of respiration and of heartbeat. The necropsy was performed according to BIOQUAL SOPs and a board-certified veterinary pathologist from the Charles River Laboratories, Pathology Associates Division (PAI) was present at necropsy.

[3] = tested on: RSV subgroup A strain A2; test: RSV viral load (qRT-PCR, RSV-A F gene) in BALF/throat after RSV A2 challenge; assay type: in vivo, African green monkeys; conditions: for Peak log VL (Median) in BALF: qRT-PCR
Method: In Study 1 all animals were followed until day 13 post-inoculation, when the necropsy took place.
In Study 2 all animals were followed until day 15 post-inoculation, when the necropsy took place.
Bronchoalveolar lavage fluid (BALF), nasal and throat swabs and blood samples were collected every 2 days from day 1 postinfection up to day 11 (study 1) and day 13 (study 2). For BALF collection, monkeys were sedated with […] (0.02–0.05 mg/kg) administered intramuscularly to allow passage of sterile laryngoscope and endotracheal tube. BAL was performed by laryngoscopy by inserting a shortened Kendall Sovereign feeding tube and urethral catheter through the endotracheal tube and approximately 10 mL of phosphate buffer saline (10 mL, pH 7.4) was instilled and gently suctioned back into the syringe promptly to recover approximately 5–7 mL of BAL in the syringe. Later, the adjustment of the dilution was done based on urea and protein concentration. White blood cell (WBC) count from BALF was analyzed using automated blood analysis instrumentation (Antech Diagnostics, Lake Success, NY, USA).
All animals were challenged with 1.5mL of 1 × 10^4 pfu/mL RSV subgroup A—strain A2 virus intranasally (i.n.) and intratracheally (i.t.) on day 0. […] The virus was thawed at room temperature and immediately put on ice.
For each inoculation, 1.5 mL were aspirated with a 3 mL syringe. After being anesthetized with 10 mg/mL ketamine, the animals were placed in dorsal recumbency. 0.25 mL of the virus was instilled drop-by-drop into each nostril and allowed to absorb for 20 sec. Once the absorption was complete, a Kendall Sovereign Feeding Tube and Urethral Catheter, Size 5 Fr, was trimmed about one inch on each side and inserted intratracheally using a laryngoscope. Once in place, 1mL of virus was instilled and flushed into the trachea with 7 mL of air.
RNA was extracted using a previously described protocol.
RSV was quantified using one-Step RT-PCR Master Mix reagents (Applied Bio systems, USA). Amplification and detection were performed in a ABI PRISM 7700 Sequence Detection System (Applied Biosystems, USA) under the following conditions: an initial reverse transcription at 48°C for 30 minutes, followed by PCR activation at 95°C for 10minutes and 45 cycles of amplification (15 sec at 95°C and 1minutes at 60°C).
The IEC-B assay was run as control. The viral load (VL) was expressed as RSV A-F copy numbers and transformed in Δ log10 values. The limit of detection was 10 copies of RSV F gene. The antiviral effect was calculated as differences between peak VL and area under the curve (AUC) VL based on Δ log10 RSV from different groups.

[4] = tested on: RSV; conditions: cited from earlier work
[5] = tested on: RSV; design: method as in PMID 21148224, PMID 17722899; conditions: single administration, cited from earlier work
[6] = tested on: RSV; design: method as in PMID 21148224; conditions: slow single bolus injection; cited from earlier work
[7] = Safety analysis: clinical symptoms, blood counts, serum chemistry; assay type: in vivo, African green monkeys; conditions: compound treated vs vehicle treated groups
Method: The animals were monitored for clinical symptoms such as body temperature changes indicating a fever, signs of a cold, runny nose, sneezing, loss of appetite, and body weight. Blood counts and serum chemistry were assessed every second day. The safety findings were compared between the vehicle groups and the compound groups, to identify possible compound related adverse events.

[8] = tested on: RSV-A virus; conditions: read-out: EC50 on Hep2 cells, for RSV-A virus; cited from earlier work
[9] = tested on: RSV; design: method as in PMID 19707346, PMID 9359721; conditions: pediatric patients; cited from earlier work
[10] = tested on: RSV; design: method as in PMID 19707346, PMID 9359721; conditions: cotton rat model; cited from earlier work

Q: What does the source list for Cc1ccc(CCCO)c(NCc2ccc3nc(NCCCN4CCOCC4)n(Cc4nc(C)ccc4O)c3c2)c1 [TMC353121]?
A: IL8 production in BALF, control vs treated animals [1]: no significant reduction in IL8 production; Lung histopathology: improvement ([2]; Study 1, Tx50 and Px50 groups): No improvement on lung histopathology; Lung histopathology: inflammatory changes ([2]; Study 2, Px5 group (as vehicle control), slight to marked degree): very pronounced (inflammatory) changes; Lung histopathology: inflammatory changes ([2]; Study 2, Px500 group, minimal to occasionally slight degree): much less pronounced changes; Plasma exposure at which complete inhibition of RSV shedding was observed ([3]; Px500 arm): 0.39 µg/mL; Timing of peak viral shedding ([3]; Study 1, Px50, 3 out of 5 animals): delayed peak viral shedding from day 7 to day 9; Peak log VL (Median) in BALF ([3]; Study 1, Px50, vehicle Vh1 8.15): 6.88 log10; Δ log (Median): reduction in peak VL vs vehicle treated group, BALF ([3]; Study 1, Px50 vs Vh1): -1.06 log10; Decrease in peak VL in BALF compared with the control group ([3]; Study 1, Tx50): 1.15 log10; Peak log VL (Median) in BALF ([3]; Study 1, Tx50, vehicle Vh1 8.15): 7 log10 and 7.00 log10; Δ log (Median): reduction in peak VL vs vehicle treated group, BALF ([3]; Study 1, Tx50 vs Vh1): -1.1 log10; Peak log VL (Median) in BALF ([3]; Study 2, Px5, vehicle Vh2 5.17): 5.23 log10; Δ log (Median): reduction in peak VL vs vehicle treated group, BALF ([3]; Study 2, Px5 vs Vh2): 0 log10; Viral replication during the entire study ([3]; Study 2, Px500, except one animal with a viral blip at day 10): complete inhibition of viral replication; Peak log VL (Median) in BALF ([3]; Study 2, Px500, vehicle Vh2 5.17): 0 log10; VL in BAL 24h after the drug infusion was stopped ([3]; Study 2, one Px500 animal, day 10, below limit of detection at day 9 in presence of drug): 2 log; Antiviral activity across dose groups ([3]; from 1log10 reduction of peak viral load to complete inhibition of RSV replication): dose-dependent antiviral activity; Delay in peak viral shedding ([3]; prophylactic administrations (Px50, Px5)): 2 days; Peak VL reduction ([3]; therapeutic (+1day postchallenge) or prophylactic administration at exposure levels 3- to 5-fold above the EC50c): 1 log10; pEC50 (anti-RSV activity) [4]: 9.9; Antiviral effect in treated compared with untreated groups ([5]; mice): 0.5–1 log; Lung histopathology in mice [5]: improved lung histopathology; Antiviral activity in rodent models of RSV infection [6]: significant antiviral activity; Drug related adverse events (clinical symptoms, blood counts, serum chemistry) [7]: no drug related adverse events were observed

Q: Which EC50 [8] does the source give for NC(=O)c1ncn([C@@H]2O[C@H](CO)[C@@H](O)[C@H]2O)n1 [ribavirin] here?
A: 30 µM

Q: With “palivizumab: humanized monoclonal antibody indicated for RSV prophylaxis in high-risk children” as the molecule, how does the “Exposure levels required to achieve 50% prophylactic effectiveness” value [9] read?
A: 37 to 72 µg/mL

Q: And the “Exposure level to achieve complete inhibition of the RSV shedding” value [10]?
A: 40 µg/mL

Source: publication PMC4444337 (PLoS ONE, 2015)
